Reference: patent US9249131B2, “Modulators of ATP-binding cassette transporters” (Vertex Pharmaceuticals Incorporated, priority 2003, dated 2016)

Target: T1, ΔF508-CFTR (Homo sapiens, UniProt P13569, DEL508-508)
T1 construct: expressed in transfected cells; host or cells: NIH3T3 mouse fibroblasts stably expressing ΔF508-CFTR for the optical, whole-cell and single-channel assays; Fisher rat epithelial (FRT) cells for Ussing chamber follow-up
Assay: Assays for ΔF508-CFTR correction and potentiator properties (membrane potential optical and electrophysiological methods)
Type: cell-based
Conditions: CFTR modulation; for % Activity: % Efficacy; for EC50: tested using the above methods
Text: Assays for Detecting and Measuring ΔF508-CFTR Correction and Potentiator Properties of Compounds
A) Membrane Potential Optical Methods for Assaying ΔF508-CFTR Modulation Properties of Compounds
The optical membrane potential assay utilized voltage-sensitive FRET sensors described by Gonzalez and Tsien (See, Gonzales, J. E. and R. Y. Tsien (1995) “Voltage sensing by fluorescence resonance energy transfer in single cells” Biophys J 69 (4): 1272-80, and Gonzalez, J. E. and R. Y. Tsien (1997) “Improved indicators of cell membrane potential that use fluorescence resonance energy transfer” Chem Biol 4 (4): 269-77) in combination with instrumentation for measuring fluorescence changes such as the Voltage/Ion Probe Reader (VIPR) (See, Gonzalez, J. E., K. Oades, et al. (1999) “Cell-based assays and instrumentation for screening ion-channel targets” Drug Discov Today 4 (9): 431-439).
These voltage sensitive assays are based on the change in fluorescence resonant energy transfer (FRET) between the membrane-soluble, voltage-sensitive dye, DiSBAC2 (3), and a fluorescent phospholipid, CC2-DMPE, which is attached to the outer leaflet of the plasma membrane and acts as a FRET donor. Changes in membrane potential (Vm) cause the negatively charged DiSBAC2(3) to redistribute across the plasma membrane and the amount of energy transfer from CC2-DMPE changes accordingly. The changes in fluorescence emission were monitored using VIPR™ II, which is an integrated liquid handler and fluorescent detector designed to conduct cell-based screens in 96- or 384-well microtiter plates.
To identify small molecules that correct the trafficking defect associated with ΔF508-CFTR; a single-addition HTS assay format was developed. The cells were incubated in serum-free medium for 16 hrs at 37° C. in the presence or absence (negative control) of test compound. As a positive control, cells plated in 384-well plates were incubated for 16 hrs at 27° C. to “temperature-correct” ΔF508-CFTR. The cells were subsequently rinsed 3× with Krebs Ringers solution and loaded with the voltage-sensitive dyes. To activate ΔF508-CFTR, […] and the CFTR potentiator, genistein ([…]), were added along with Cl^−-free medium to each well. The addition of Cl^−-free medium promoted Cl^− efflux in response to ΔF508-CFTR activation and the resulting membrane depolarization was optically monitored using the FRET-based voltage-sensor dyes.
To identify potentiators of ΔF508-CFTR, a double-addition HTS assay format was developed. During the first addition, a Cl^−-free medium with or without test compound was added to each well. After 22 sec, a second addition of Cl^−-free medium containing 2-10 µM forskolin was added to activate ΔF508-CFTR. The extracellular Cl^− concentration following both additions was 28 mM, which promoted Cl^− efflux in response to ΔF508-CFTR activation and the resulting membrane depolarization was optically monitored using the FRET-based voltage-sensor dyes.
• Bath Solution #1: (in mM) NaCl 160, KCl 4.5, CaCl2 2, MgCl2 1, HEPES 10, pH 7.4 with NaOH. • Chloride-free bath solution: Chloride salts in Bath Solution #1 are substituted with gluconate salts. • CC2-DMPE: Prepared as a 10 mM stock solution in DMSO and stored at −20° C. • DiSBAC2(3): Prepared as a 10 mM stock in DMSO and stored at −20° C. Cell Culture
NIH3T3 mouse fibroblasts stably expressing ΔF508-CFTR are used for optical measurements of membrane potential. The cells are maintained at 37° C. in 5% CO2 and 90% humidity in Dulbecco's modified Eagle's medium supplemented with 2 mM glutamine, 10% fetal bovine serum, 1×NEAA, β-ME, 1×pen/strep, and 25 mM HEPES in 175 cm^2 culture flasks. For all optical assays, the cells were seeded at 30,000/well in 384-well matrigel-coated plates and cultured for 2 hrs at 37° C. before culturing at 27° C. for 24 hrs. for the potentiator assay. For the correction assays, the cells are cultured at 27° C. or 37° C. with and without compounds for 16-24 hours.

T1 sequence (P13569 with tags, fused parts or gaps DEL508-508): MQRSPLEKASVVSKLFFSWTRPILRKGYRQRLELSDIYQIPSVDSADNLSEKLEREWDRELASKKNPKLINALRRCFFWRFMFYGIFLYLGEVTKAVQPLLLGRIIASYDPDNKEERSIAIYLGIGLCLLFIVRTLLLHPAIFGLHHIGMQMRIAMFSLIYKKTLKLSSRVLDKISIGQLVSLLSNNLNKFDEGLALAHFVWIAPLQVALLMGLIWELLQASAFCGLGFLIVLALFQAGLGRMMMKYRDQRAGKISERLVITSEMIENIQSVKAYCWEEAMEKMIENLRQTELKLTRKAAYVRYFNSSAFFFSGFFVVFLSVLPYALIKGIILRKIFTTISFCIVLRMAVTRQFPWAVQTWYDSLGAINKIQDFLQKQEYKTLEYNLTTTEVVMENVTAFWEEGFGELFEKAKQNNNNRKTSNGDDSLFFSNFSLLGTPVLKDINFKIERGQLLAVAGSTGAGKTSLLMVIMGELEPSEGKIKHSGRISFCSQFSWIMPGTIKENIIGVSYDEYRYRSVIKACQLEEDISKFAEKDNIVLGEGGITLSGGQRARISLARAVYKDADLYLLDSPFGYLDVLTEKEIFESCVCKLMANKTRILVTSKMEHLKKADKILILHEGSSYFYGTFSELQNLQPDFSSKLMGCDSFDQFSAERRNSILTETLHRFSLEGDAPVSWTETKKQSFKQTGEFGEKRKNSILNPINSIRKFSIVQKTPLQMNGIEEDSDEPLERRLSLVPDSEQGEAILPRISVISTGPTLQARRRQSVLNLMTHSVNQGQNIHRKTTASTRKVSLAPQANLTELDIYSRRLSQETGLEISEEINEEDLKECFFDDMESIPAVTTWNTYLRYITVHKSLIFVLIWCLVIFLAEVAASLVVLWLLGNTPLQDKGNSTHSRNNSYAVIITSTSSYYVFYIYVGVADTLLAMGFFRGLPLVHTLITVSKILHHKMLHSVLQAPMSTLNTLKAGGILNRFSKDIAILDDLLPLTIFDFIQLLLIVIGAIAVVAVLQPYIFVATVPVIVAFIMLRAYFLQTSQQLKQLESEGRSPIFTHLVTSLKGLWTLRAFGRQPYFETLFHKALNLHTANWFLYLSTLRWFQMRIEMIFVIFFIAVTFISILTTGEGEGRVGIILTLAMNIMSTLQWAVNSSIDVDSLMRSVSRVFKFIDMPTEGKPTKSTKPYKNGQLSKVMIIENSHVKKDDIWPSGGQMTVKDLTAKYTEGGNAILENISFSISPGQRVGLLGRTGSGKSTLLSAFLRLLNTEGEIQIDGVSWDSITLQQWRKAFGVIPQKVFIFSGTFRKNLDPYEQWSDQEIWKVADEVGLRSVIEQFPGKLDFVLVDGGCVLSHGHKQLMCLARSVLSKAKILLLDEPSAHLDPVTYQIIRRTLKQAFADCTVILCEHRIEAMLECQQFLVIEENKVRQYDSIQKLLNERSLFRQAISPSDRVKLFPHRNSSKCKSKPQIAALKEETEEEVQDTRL

## O=C(Nc1ncc(Cc2ccccc2Cl)s1)C(c1ccc(Cl)cc1)c1ccc(Cl)cc1 [compound 95]
  % Activity: ++ (“++” means between 25% to 100%)
  EC50: < 10 µM

## CCC(C(=O)Nc1ncc(Cc2ccccc2)s1)c1ccccc1 (stereo not shown) [compound 96]
  % Activity: ++ (“++” means between 25% to 100%)
  EC50: 10 to 25 µM

## CCC(C(=O)Nc1ncc(Cc2ccccc2Cl)s1)c1ccccc1 (stereo not shown) [compound 97]
  % Activity: +++ (“+++” means >100%)
  EC50: < 10 µM

## CCC(C)C(C(=O)Nc1ncc(Cc2ccccc2)s1)c1ccccc1 (stereo not shown) [compound 98]
  % Activity: ++ (“++” means between 25% to 100%)
  EC50: < 10 µM

## CCC(C)C(C(=O)Nc1ncc(Cc2ccccc2Cl)s1)c1ccccc1 (stereo not shown) [compound 99]
  % Activity: +++ (“+++” means >100%)
  EC50: < 10 µM

## CCC(C)C(C(=O)Nc1ncc(Cc2ccccc2)o1)c1ccccc1 (stereo not shown) [compound 100]
  % Activity: ++ (“++” means between 25% to 100%)
  EC50: 10 to 25 µM

## O=C(Nc1ncc(Cc2ccccc2)s1)C(c1ccccc1)C1CCCC1 (stereo not shown) [compound 101]
  % Activity: ++ (“++” means between 25% to 100%)
  EC50: < 10 µM

## O=C(Nc1ncc(Cc2ccccc2Cl)s1)C(c1ccccc1)C1CCCC1 (stereo not shown) [compound 102]
  % Activity: +++ (“+++” means >100%)
  EC50: < 10 µM

## CC(C)C(C(=O)Nc1ncc(Cc2ccccc2Cl)s1)c1ccccc1 (stereo not shown) [compound 103]
  % Activity: +++ (“+++” means >100%)
  EC50: < 10 µM

## O=C(Nc1nc(-c2ccccc2)c(-c2ccccc2)s1)c1ccccc1Cl [compound 104]
  % Activity: ++ (“++” means between 25% to 100%)
  EC50: < 10 µM

## COc1cccc(C(=O)Nc2nc(-c3ccccc3)c(-c3ccccc3)s2)c1 [compound 105]
  % Activity: +++ (“+++” means >100%)
  EC50: < 10 µM

## O=C(Nc1nc(-c2ccccc2)c(-c2ccccc2)s1)c1cccc(Cl)c1 [compound 106]
  % Activity: ++ (“++” means between 25% to 100%)
  EC50: < 10 µM

## O=C(Cc1ccccc1)Nc1nc(-c2ccccc2)c(-c2ccccc2)s1 [compound 107]
  % Activity: +++ (“+++” means >100%)
  EC50: < 10 µM

## CCCC(=O)Nc1nc(-c2ccccc2)c(-c2ccccc2)s1 [compound 108]
  % Activity: ++ (“++” means between 25% to 100%)
  EC50: < 10 µM

## CC(C)C(=O)Nc1nc(-c2ccccc2)c(-c2ccccc2)s1 [compound 109]
  % Activity: ++ (“++” means between 25% to 100%)
  EC50: < 10 µM

## CC(C)CC(=O)Nc1nc(-c2ccccc2)c(-c2ccccc2)s1 [compound 110]
  % Activity: +++ (“+++” means >100%)
  EC50: < 10 µM

## O=C(Nc1nc(-c2ccccc2)c(-c2ccccc2)s1)C1CC1 [compound 111]
  % Activity: +++ (“+++” means >100%)
  EC50: < 10 µM

## CC(C)(C)C(=O)Nc1nc(-c2ccccc2)c(-c2ccccc2)s1 [compound 112]
  % Activity: ++ (“++” means between 25% to 100%)
  EC50: < 10 µM

## O=C(Nc1nc(-c2ccccc2)c(-c2ccccc2)s1)C1CCCC1 [compound 113]
  % Activity: ++ (“++” means between 25% to 100%)
  EC50: < 10 µM

## O=C(Nc1nc(-c2ccccc2)c(-c2ccccc2)s1)C1CCCCC1 [compound 114]
  % Activity: ++ (“++” means between 25% to 100%)
  EC50: < 10 µM

## O=C(Nc1nc(-c2ccccc2)c(-c2ccccc2)s1)C1CCCO1 (stereo not shown) [compound 115]
  % Activity: +++ (“+++” means >100%)
  EC50: < 10 µM

## O=C(Nc1nc(-c2ccccc2)c(-c2ccccc2)s1)C1CCOC1 (stereo not shown) [compound 116]
  % Activity: ++ (“++” means between 25% to 100%)
  EC50: < 10 µM

## O=C(Nc1ncc(Cc2ccc(Cl)cc2)s1)C(c1ccccc1)C1CCCCC1 (stereo not shown) [compound 117]
  % Activity: +++ (“+++” means >100%)
  EC50: < 10 µM

## O=C(Nc1ncc(Cc2ccc(Cl)cc2)s1)C(c1ccc(Cl)cc1)c1ccc(Cl)cc1 [compound 118]
  % Activity: ++ (“++” means between 25% to 100%)
  EC50: < 10 µM

## CC(C(=O)Nc1ncc(Cc2ccc(Cl)cc2)s1)c1ccccc1 (stereo not shown) [compound 119]
  % Activity: +++ (“+++” means >100%)
  EC50: < 10 µM

## CCC(C(=O)Nc1ncc(Cc2ccc(Cl)cc2)s1)c1ccccc1 (stereo not shown) [compound 120]
  % Activity: ++ (“++” means between 25% to 100%)
  EC50: < 10 µM

## CCC(C)C(C(=O)Nc1ncc(Cc2ccc(Cl)cc2)s1)c1ccccc1 (stereo not shown) [compound 121]
  % Activity: +++ (“+++” means >100%)
  EC50: < 10 µM

## O=C(Nc1ncc(Cc2ccc(Cl)cc2)s1)C(c1ccccc1)C1CCCC1 (stereo not shown) [compound 122]
  % Activity: +++ (“+++” means >100%)
  EC50: < 10 µM

## CC(C)C(C(=O)Nc1ncc(Cc2ccc(Cl)cc2)s1)c1ccccc1 (stereo not shown) [compound 123]
  % Activity: +++ (“+++” means >100%)
  EC50: < 10 µM

## O=C(Nc1ncc(Cc2cccc(Cl)c2)s1)C(c1ccccc1)c1ccccc1 [compound 124]
  % Activity: ++ (“++” means between 25% to 100%)
  EC50: < 10 µM

## O=C(Nc1ncc(Cc2cccc(Cl)c2)s1)C(c1ccc(Cl)cc1)c1ccc(Cl)cc1 [compound 125]
  % Activity: ++ (“++” means between 25% to 100%)
  EC50: < 10 µM

## O=C(Nc1ncc(Cc2cccc(Cl)c2)s1)C1Cc2ccccc21 (stereo not shown) [compound 126]
  % Activity: ++ (“++” means between 25% to 100%)
  EC50: 25 to 60 µM

## CC(C(=O)Nc1ncc(Cc2cccc(Cl)c2)s1)c1ccccc1 (stereo not shown) [compound 127]
  % Activity: ++ (“++” means between 25% to 100%)
  EC50: < 10 µM

## CCC(C(=O)Nc1ncc(Cc2cccc(Cl)c2)s1)c1ccccc1 (stereo not shown) [compound 128]
  % Activity: +++ (“+++” means >100%)
  EC50: < 10 µM

## CCC(C)C(C(=O)Nc1ncc(Cc2cccc(Cl)c2)s1)c1ccccc1 (stereo not shown) [compound 129]
  % Activity: ++ (“++” means between 25% to 100%)
  EC50: < 10 µM

## CC(C)C(C(=O)Nc1ncc(Cc2cccc(Cl)c2)s1)c1ccccc1 (stereo not shown) [compound 130]
  % Activity: +++ (“+++” means >100%)
  EC50: < 10 µM

## O=C(Nc1ncc(Cc2cccc(Cl)c2)s1)C1c2ccccc2Oc2ccccc21 [compound 131]
  % Activity: +++ (“+++” means >100%)
  EC50: < 10 µM

## COc1ccccc1Cc1cnc(NC(=O)C(c2ccccc2)C2CCCCC2)s1 (stereo not shown) [compound 132]
  % Activity: ++ (“++” means between 25% to 100%)
  EC50: < 10 µM

## COc1ccccc1Cc1cnc(NC(=O)C2c3ccccc3-c3ccccc32)s1 [compound 133]
  % Activity: ++ (“++” means between 25% to 100%)
  EC50: < 10 µM

## COc1ccccc1Cc1cnc(NC(=O)C(c2ccc(Cl)cc2)c2ccc(Cl)cc2)s1 [compound 134]
  % Activity: ++ (“++” means between 25% to 100%)
  EC50: < 10 µM

## COc1ccccc1Cc1cnc(NC(=O)C(C)c2ccccc2)s1 (stereo not shown) [compound 135]
  % Activity: ++ (“++” means between 25% to 100%)
  EC50: < 10 µM

## CCC(C(=O)Nc1ncc(Cc2ccccc2OC)s1)c1ccccc1 (stereo not shown) [compound 136]
  % Activity: ++ (“++” means between 25% to 100%)
  EC50: < 10 µM

## CCC(C)C(C(=O)Nc1ncc(Cc2ccccc2OC)s1)c1ccccc1 (stereo not shown) [compound 137]
  % Activity: ++ (“++” means between 25% to 100%)
  EC50: < 10 µM

## COc1ccccc1Cc1cnc(NC(=O)C(c2ccccc2)C(C)C)s1 (stereo not shown) [compound 138]
  % Activity: ++ (“++” means between 25% to 100%)
  EC50: < 10 µM
